Assay results: US4542137A, “Alkylaminodesoxy-1.4;3.6-dianhydrohexitol nitrates substituted by purine bases and pharmaceutical compositions” (priority 1980, dated 1985)

Test system: mongrel dogs
Test: circulatory pharmacological effectiveness on narcotised dogs, intravenous
Format: in vivo, dog
Settings: dog i.v. ISDN/9c 1, 1d 0.5 mg/kg

Cn1c(=O)c2c(ncn2CCCN[C@H]2CO[C@H]3[C@@H]2OC[C@@H]3O[N+](=O)[O-])n(C)c1=O [Example 1d, 5-(3-Theophyllin-7-ylpropyl)-amino-5-desoxy-1.4;3.6-dianhydro-L-iditol 2-nitrate]
APdiast: diastolic aorta pressure (2 min): 67.5 mm.Hg | APsyst: systolic aorta pressure (2 min): 107.8 mm.Hg | BFFem: blood flow in the A. femoralis referred to 20 kg body weight (2 min): 42.6 mL/min | HF: heart frequency (2 min): 145.7 | HLL: heart capacity left, referred to 20 kg body weight (2 min): 0.51 W | HLR: heart capacity right, referred to 20 kg body weight (2 min): 70.9 mW | HZV: heart minute volume, referred to 20 kg body weight (2 min): 2.94 L/min | LVEDP: end diastolic pressure in the left ventricle (2 min): 3.85 mm.Hg | SV: beat volume, referred to 20 kg body weight (2 min): 21.9 mL | WAP: pulmonalis resistance, referred to 20 kg body weight (2 min): 0.35 U | WFem: moralis resistance, referred to 20 kg body weight (2 min): 0.28 KU | WTP: total peripheral resistance, referred to 20 kg body weight (2 min): 3.73 U | dp/dt: rate of pressure increase in the left ventricle (2 min): 2915.6 mm.Hg/sec | APdiast: diastolic aorta pressure (5 min): 77.8 mm.Hg | APsyst: systolic aorta pressure (5 min): 119.4 mm.Hg | BFFem: blood flow in the A. femoralis referred to 20 kg body weight (5 min): 40.8 mL/min | HF: heart frequency (5 min): 131.2 | HLL: heart capacity left, referred to 20 kg body weight (5 min): 0.47 W | HLR: heart capacity right, referred to 20 kg body weight (5 min): 58.2 mW | HZV: heart minute volume, referred to 20 kg body weight (5 min): 2.40 L/min | LVEDP: end diastolic pressure in the left ventricle (5 min): 4.78 mm.Hg | SV: beat volume, referred to 20 kg body weight (5 min): 19.6 mL | WAP: pulmonalis resistance, referred to 20 kg body weight (5 min): 0.38 U | WFem: moralis resistance, referred to 20 kg body weight (5 min): 0.32 KU | WTP: total peripheral resistance, referred to 20 kg body weight (5 min): 5.16 U | dp/dt: rate of pressure increase in the left ventricle (5 min): 2671.9 mm.Hg/sec | APdiast: diastolic aorta pressure (7 min): 75.9 mm.Hg | APsyst: systolic aorta pressure (7 min): 122.8 mm.Hg | BFFem: blood flow in the A. femoralis referred to 20 kg body weight (7 min): 42.7 mL/min | HF: heart frequency (7 min): 119.5 | HLL: heart capacity left, referred to 20 kg body weight (7 min): 0.47 W | HLR: heart capacity right, referred to 20 kg body weight (7 min): 56.8 mW | HZV: heart minute volume, referred to 20 kg body weight (7 min): 2.40 L/min | LVEDP: end diastolic pressure in the left ventricle (7 min): 5.16 mm.Hg | SV: beat volume, referred to 20 kg body weight (7 min): 21.3 mL | WAP: pulmonalis resistance, referred to 20 kg body weight (7 min): 0.37 U | WFem: moralis resistance, referred to 20 kg body weight (7 min): 0.30 KU | WTP: total peripheral resistance, referred to 20 kg body weight (7 min): 5.10 U | dp/dt: rate of pressure increase in the left ventricle (7 min): 2662.5 mm.Hg/sec | APdiast: diastolic aorta pressure (10 min): 74.6 mm.Hg | APsyst: systolic aorta pressure (10 min): 124.7 mm.Hg | BFFem: blood flow in the A. femoralis referred to 20 kg body weight (10 min): 46.2 mL/min | HF: heart frequency (10 min): 110.2 | HLL: heart capacity left, referred to 20 kg body weight (10 min): 0.47 W | HLR: heart capacity right, referred to 20 kg body weight (10 min): 57.1 mW | HZV: heart minute volume, referred to 20 kg body weight (10 min): 2.38 L/min | LVEDP: end diastolic pressure in the left ventricle (10 min): 4.69 mm.Hg | SV: beat volume, referred to 20 kg body weight (10 min): 22.9 mL | WAP: pulmonalis resistance, referred to 20 kg body weight (10 min): 0.41 U | WFem: moralis resistance, referred to 20 kg body weight (10 min): 0.28 KU | WTP: total peripheral resistance, referred to 20 kg body weight (10 min): 5.10 U | dp/dt: rate of pressure increase in the left ventricle (10 min): 2465.6 mm.Hg/sec | APdiast: diastolic aorta pressure (15 min): 75.9 mm.Hg | APsyst: systolic aorta pressure (15 min): 126.0 mm.Hg | BFFem: blood flow in the A. femoralis referred to 20 kg body weight (15 min): 48.3 mL/min | HF: heart frequency (15 min): 107.7 | HLL: heart capacity left, referred to 20 kg body weight (15 min): 0.44 W | HLR: heart capacity right, referred to 20 kg body weight (15 min): 53.8 mW | HZV: heart minute volume, referred to 20 kg body weight (15 min): 2.26 L/min | SV: beat volume, referred to 20 kg body weight (15 min): 22.0 mL | WAP: pulmonalis resistance, referred to 20 kg body weight (15 min): 0.43 U | WFem: moralis resistance, referred to 20 kg body weight (15 min): 0.28 KU | WTP: total peripheral resistance, referred to 20 kg body weight (15 min): 5.51 U | dp/dt: rate of pressure increase in the left ventricle (15 min): 2465.6 mm.Hg/sec | APdiast: diastolic aorta pressure (20 min): 78.7 mm.Hg | APsyst: systolic aorta pressure (20 min): 127.9 mm.Hg | BFFem: blood flow in the A. femoralis referred to 20 kg body weight (20 min): 51.5 mL/min | HF: heart frequency (20 min): 104.0 | HLL: heart capacity left, referred to 20 kg body weight (20 min): 0.45 W | HLR: heart capacity right, referred to 20 kg body weight (20 min): 52.8 mW | HZV: heart minute volume, referred to 20 kg body weight (20 min): 2.24 L/min | LVEDP: end diastolic pressure in the left ventricle (20 min): 5.62 mm.Hg | SV: beat volume, referred to 20 kg body weight (20 min): 22.3 mL | WAP: pulmonalis resistance, referred to 20 kg body weight (20 min): 0.41 U | WFem: moralis resistance, referred to 20 kg body weight (20 min): 0.27 KU | WTP: total peripheral resistance, referred to 20 kg body weight (20 min): 5.71 U | dp/dt: rate of pressure increase in the left ventricle (20 min): 2428.1 mm.Hg/sec | APdiast: diastolic aorta pressure (25 min): 79.7 mm.Hg | APsyst: systolic aorta pressure (25 min): 127.5 mm.Hg | BFFem: blood flow in the A. femoralis referred to 20 kg body weight (25 min): 52.9 mL/min | HLL: heart capacity left, referred to 20 kg body weight (25 min): 0.45 W | HLR: heart capacity right, referred to 20 kg body weight (25 min): 50.9 mW | HZV: heart minute volume, referred to 20 kg body weight (25 min): 2.24 L/min | LVEDP: end diastolic pressure in the left ventricle (25 min): 5.44 mm.Hg | SV: beat volume, referred to 20 kg body weight (25 min): 22.3 mL | WAP: pulmonalis resistance, referred to 20 kg body weight (25 min): 0.44 U | WFem: moralis resistance, referred to 20 kg body weight (25 min): 0.27 KU | WTP: total peripheral resistance, referred to 20 kg body weight (25 min): 5.78 U | dp/dt: rate of pressure increase in the left ventricle (25 min): 2353.1 mm.Hg/sec | APdiast: diastolic aorta pressure (30 min): 81.6 mm.Hg | APsyst: systolic aorta pressure (30 min): 130.9 mm.Hg | BFFem: blood flow in the A. femoralis referred to 20 kg body weight (30 min): 54.1 mL/min | HF: heart frequency (30 min): 101.2 | HLL: heart capacity left, referred to 20 kg body weight (30 min): 0.45 W | HLR: heart capacity right, referred to 20 kg body weight (30 min): 50.5 mW | HZV: heart minute volume, referred to 20 kg body weight (30 min): 2.18 L/min | LVEDP: end diastolic pressure in the left ventricle (30 min): 5.72 mm.Hg | SV: beat volume, referred to 20 kg body weight (30 min): 22.1 mL | WAP: pulmonalis resistance, referred to 20 kg body weight (30 min): 0.45 U | WFem: moralis resistance, referred to 20 kg body weight (30 min): 0.26 KU | WTP: total peripheral resistance, referred to 20 kg body weight (30 min): 6.10 U | APdiast: diastolic aorta pressure (40 min): 83.4 mm.Hg | APsyst: systolic aorta pressure (40 min): 133.1 mm.Hg
